Like-named read-outs stand apart in the source and are kept apart here. Ends that are not written are not given here.
Tests used:
[1] = system: preformed P. aeruginosa ATCC 15442 biofilm; assay: Biofilm eradication (postexposure); type: cell-based, Pseudomonas aeruginosa; settings: at 64 μM and 128 μM; resazurin
Procedure: After 16 h of incubation at 37°C and shaking at 110 rpm (New Brunswick Innova 4300), a resazurin assay was used as described by Gilbert-Girard et al. to determine the viability of the bacterial cells in the biofilm ([79]). After incubation, the growth medium was removed from the well plates and the bacterial biofilms were washed once with PBS to remove remaining planktonic cells. […] The fluorescence of the wells was measured at λexcitation = 550 nm and λemission = 590 using a microplate reader (Promega). Afterwards, a crystal violet staining was applied to determine the biomass of the biofilms ([79]). The resazurin solution was removed from the well plates and 200 μL of 100% ethanol (VWR Chemicals) was added to fix the biofilms. After 15 min of incubation, the ethanol was discarded from the wells and the plates were left to air dry for 30 min. […] The staining solution was removed after 5 min and the biofilms were washed with PBS. After air-drying for 10 min, the crystal violet stain was solubilized in 200 μL of 100% ethanol. […] The experiment was carried out three times. Polymyxin B sulfate (Sigma-Aldrich) was included as a reference. […] The next day, bacterial viability and biomass were determined with a resazurin assay and crystal violet assay as described earlier. […]

E. coli ATCC 8739 [2] = settings: ATCC 8739, 16 h
[3] = system: M. tuberculosis ATCC 25177 (H37Ra); settings: for IC50: read-out: IC50 M. tuberculosis ATCC 25177 (H37Ra), starting at 32 μM, 5×10^5 CFU/mL, 7 days, 37°C, resazurin; for MIC M. tuberculosis ATCC 25177 (H37Ra): visual
P. aeruginosa ATCC 15442 = settings: ATCC 15442, 16 h
E. coli ATCC 8739 [4] = type: cell-based, Escherichia coli; settings: ATCC 8739, 16 h
Procedure: To detect antimicrobial activity of the BSF AMPs, the peptide library underwent screening against a panel of microorganisms, consisting of S. aureus ATCC 6538, E. coli ATCC 8739, P. aeruginosa ATCC 9027, C. albicans B59630, and A. fumigatus B42928. Serial dilutions of the peptides were prepared from the DMSO stock solutions in sterile demineralized water in 96-well plates using an automated liquid-handling workstation (Beckman Coulter Biomek 3000) in end volumes of 10 μL. The final in-plate concentration of DMSO was <1%. Peptide concentrations ranged from 64 μM to 0.25 μM for the first evaluation, and from 32 μM to 0.016 μM for the independent repeat. As references, doxycycline (Sigma-Aldrich; S. aureus, E. coli, P. aeruginosa), flucytosine (Sigma-Aldrich; C. albicans), and econazole (Sigma-Aldrich; A. fumigatus) were used. Suspensions of a starting inoculum of 5 × 10^3 CFU/mL (E. coli, S. aureus, C. albicans, A. fumigatus) and 5 × 10^4 CFU/mL (P. aeruginosa) were prepared in MHB (bacterial species) or RPMI medium (fungal species) and 190 μL was added to the 96-well plates. Plates were incubated for 16 h (E. coli, S. aureus, P. aeruginosa), 24 h (C. albicans), or 48 h (A. fumigatus) at 37°C. After incubation, read-out of the antimicrobial activity was performed using a resazurin assay. Then, 20 μL of a 0.01% (wt/vol) resazurin (Sigma-Aldrich) solution was added to each well and plates were incubated for 15 min (S. aureus), 30 min (E. coli), 45 min (P. aeruginosa), 4 h (C. albicans), or 17 h (A. fumigatus) to allow resazurin reduction to take place. Fluorescence was read using a microplate reader (Telix) at λexcitation = 550 nm and λemission = 590. […] MIC values were determined visually. Medium in the wells with no visual growth was plated on MHA to detect the MBC, defined as ≥3 log reduction compared with the growth control.

B. cenocepacia LMG 16656 = settings: for IC50: read-out: IC50 B. cenocepacia LMG 16656, starting at 32 μM, 10^5 CFU/mL, 48 h, 37°C, resazurin; for MIC B. cenocepacia LMG 16656: visual
K. pneumoniae ATCC 13883 = settings: ATCC 13883, 16 h

Substance | reduction in viability of preformed biofilm [1] | IC50 (E. coli ATCC 8739 [2]) | IC50 ([3]; repeat 1) | IC50 ([3]; repeat 2) | MIC M. tuberculosis ATCC 25177 (H37Ra) ([3]; repeat 1) | MIC M. tuberculosis ATCC 25177 (H37Ra) ([3]; repeat 2) | MIC P. aeruginosa ATCC 15442 (P. aeruginosa ATCC 15442) | MIC E. coli ATCC 8739 (E. coli ATCC 8739 [4]) | IC50 (B. cenocepacia LMG 16656; repeat 1) | IC50 (B. cenocepacia LMG 16656; repeat 2) | MIC B. cenocepacia LMG 16656 (B. cenocepacia LMG 16656; repeat 1) | MIC B. cenocepacia LMG 16656 (B. cenocepacia LMG 16656; repeat 2) | MIC K. pneumoniae (K. pneumoniae ATCC 13883)
polymyxin B [reference compound] | over 70% | – | – | – | – | – | – | – | – | – | – | – | –
SWWKKVFKPVEKLGQRVRDATIQGIGIAQQGANVLATVRGGPPQ-NH2 [Hill-Cec1] | – | 0.15 µM | > 32 µM | > 32 µM | >32 µM | >32 µM | 1 µM | 0.25 µM | > 32 µM | > 32 µM | >32 µM | >32 µM | 0.25 to 0.5 µM
